Consider three molecules from publication PMC11290297 (Addiction neuroscience, 2024).

The Ki is the equilibrium dissociation constant of an inhibitor or competing ligand from its target. The low end stands for tighter binding, the high end for weaker binding.

Test [1] concerns the target T1, α2A-AR (Homo sapiens, UniProt P08913).
T1 sequence (P08913 1-465): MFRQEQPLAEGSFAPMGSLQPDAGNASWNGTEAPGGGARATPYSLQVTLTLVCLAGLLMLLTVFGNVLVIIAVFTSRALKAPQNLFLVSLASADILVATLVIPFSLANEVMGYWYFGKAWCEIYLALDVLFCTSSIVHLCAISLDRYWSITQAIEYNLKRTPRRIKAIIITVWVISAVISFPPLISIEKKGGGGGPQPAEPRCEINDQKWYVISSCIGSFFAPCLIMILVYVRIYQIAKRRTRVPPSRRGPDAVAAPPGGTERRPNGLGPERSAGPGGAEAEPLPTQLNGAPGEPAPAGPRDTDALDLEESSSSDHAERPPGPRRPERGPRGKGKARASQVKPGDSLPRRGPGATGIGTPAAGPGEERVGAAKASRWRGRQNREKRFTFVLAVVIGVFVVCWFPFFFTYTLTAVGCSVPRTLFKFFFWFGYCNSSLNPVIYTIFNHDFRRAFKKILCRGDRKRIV
Description: TRUPATH BRET2 G-protein activation. Type of test: cell-based. The following applies: agonist; Gi1, GoA, Gz. Background: Bioluminescence resonance energy transfer reports proximity on the nanometre scale.

The target of test [2] is T2, kappa opioid receptor (κOR) (Homo sapiens, UniProt P41145). Description: Gi-GloSensor cAMP assay. It is filed as cell-based. On the technique in general: cAMP levels reflect the balance of adenylyl cyclase and phosphodiesterase activity.
Test [3] has as its target T1, α2A-AR. The test can be described thus: radioligand competition binding. The following applies: panel labelled α2-AR. On the technique in general: Loss of bound radioactivity is the signal in a displacement assay; it reports binding, not function.
In test [4] the target is T2, kappa opioid receptor (κOR). Description: radioligand competition binding, 3H-U69593.
Test [5] concerns the target T1, α2A-AR. The test can be described thus: Gi-GloSensor cAMP assay. Type of test: cell-based. The following applies: read-out: potency (pEC50) (converted); full agonist; printed pEC50 of 7.47.
Test [6] addresses T2, kappa opioid receptor (κOR). Description: Gi-GloSensor cAMP assay. Type of test: cell-based. This is another data set of the same source.

Turning to `Cc1ccc(O)c(C)c1NC1=NCCCS1` [3-hydroxy-xylazine], the pEC50 result at α2A-AR [1] was “Xylazine, its metabolites, as well as other relevant adrenergic agonists exhibited agonist activity at α2A-AR”; in test [2] (agonist), 3-hydroxy-xylazine was as efficacious, though less potent, as xylazine and salvinorin A.

Regarding `Cc1cc(O)cc(C)c1NC1=NCCCS1` [4-hydroxy-xylazine], the pEC50 result was “Xylazine, its metabolites, as well as other relevant adrenergic agonists exhibited agonist activity at α2A-AR” at α2A-AR [1] and 4-hydroxy-xylazine was less efficacious at κOR overall in test [2] (partial agonist).

As for `Cc1cccc(C)c1NC1=NCCCS1` [xylazine], the pKi result at α2A-AR [3] is “Radioligand competitive binding assay confirms xylazine activity at κOR (A) and α2-AR (B)”. This molecule also yielded a Ki in test [4] of 470 nM. Moreover, the EC50 at α2A-AR [5] is 34 nM; in test [6], 1400 nM.
